# According to patent US20060089410A1, “Combination of chemotherapeutic drugs for increasing antitumor activity” (Titan Pharmaceuticals, Inc., priority 2002, published 2006):
# Legend:
# [1] = system: T24 Bladder transitional carcinoma cells; assay: Crystal violet microtiter assay, Pivanex then cytotoxic drug, T24; type: cell-based, human
# Method: (§1) T24 Bladder transitional carcinoma cells, Calu-6 anaplastic lung carcinoma cells, and SK-MES-1 squamous lung cell carcinoma cell cultures were purchased from the American Type Culture Collection (Manassas, Va.). All cell lines were cultured in RPMI-1640 with 10% fetal calf serum. For culture in microtiter dishes, cells were plated at a density of 10^4 cells/well and incubated at 37° C., 5% CO2 overnight.
# (§2) After overnight incubation, drugs were added to wells in quadruplicate and incubated for 6 to 96 hours in the presence or absence of the oxyalkylene containing compound. […] the media was removed, fresh media were added with cytotoxic drug, and the cultures were incubated for another 6 hours.
# The wells were then washed and medium without drug was added to each well. Microtiter plates were subsequently incubated for an additional 3 days before cell density was determined by a Crystal Violet Assay. Some cultures were alternatively fixed in methanol and stained with hematoxylin and eosin (H&E) stain for 5 minutes prior to microphotography.
# PIVANEX (pivaloyloxymethyl butyrate) was obtained from Titan Pharmaceuticals Inc. (South San Francisco, Calif.) and was admixed with 0.05% Intralipid™ (Fresenius Kabi, Clayton, N.C.) prior to addition to culture media. The cytotoxic drugs gemcitabine (Gemzar; Eli Lilly and Co., Indianapolis, Ind.), cisplatin (Platinol, Bristol-Myers Squibb Co., Princeton, N.J.), paclitaxel (Taxol; Bristol-Myers Squibb Co., Princeton, N.J.), and docetaxel (Taxotere, Aventis Pharmaceuticals Products, Inc., Bridgewater, N.J.) were studied with PIVANEX.
# Cells in microtiter wells were rinsed with PBS and fixed in two volumes of 100% cold methanol for 5 minutes. One volume of 0.5% crystal violet in 20% methanol was added and the attached cells stained for 10 minutes. The cells were then washed and crystal violet was eluted with 0.1 N sodium citrate buffer and read on an ELISA plate reader at 490 nm.
# tumor cells = assay: Growth inhibitory and cytotoxic effects on tumor cells in tissue culture; type: cell-based; conditions: tumor cell line dependent
# Excerpt: Testing of a pivaloyloxymethyl butyrate dose and schedule interactions with chemotherapy in tissue culture was undertaken to facilitate clinical planning.
# The observed morphologic changes consistent with a more differentiated phenotype prompted investigation of oncogene expression following exposure to pivaloyloxymethyl butyrate.
# H522 NSCLC cell line = assay: MTS growth inhibition assay, sequencing of Pivanex and docetaxel, H522; type: cell-based, human; conditions: after 24 hour exposure
# Method: Human Non-Small Cell Lung Carcinoma Cell Lines, H522 and NCI-H23, were evaluated for growth inhibitory activity of Pivanex, alone and in combination with the standard chemotherapeutic agent, docetaxel. Cells were treated for three days with Pivanex followed by 24 hours of exposure to docetaxel or the cells were treated for 24 hours with docetaxel followed by three days of exposure to Pivanex. The cell growth inhibition was judged at the end of the 4-day experiments by a standard staining technique using MTS tetrazolium vital stain. […]
# Exponentially growing cells were harvested with trypsin (0.05%)/EDTA (0.02%) and re-suspended in fresh medium containing 10% FBS. […] Absorbance was documented on a Dynex HD microplate reader at a wavelength of 490 nm. IC50 values were determined by using the Prism® GraphPad software from 3 different tests, each of which involved 4 replicates for each dose determination. The data are presented as percent growth inhibition, where 0% represents the mean value in wells to which only vehicle (0.1% DMSO) was added and was calculated as follows: % Growth Inhibition=(1−(ODtest/ODvehicle))×100 where ODtest is the optical density of the tested sample, OD vehicle is the optical density of the vehicle in which each respected drug is dissolved. […]
# c-Myc oncogene [2] = assay: c-Myc oncogene expression, SK-MES-1 cells; type: cell-based; conditions: SK-MES-1, 96 hours in culture
# Method: as §1, §2
# (§3) Tumor cell culture mRNA was isolated by standard methods, and RT-PCR was conducted to determine levels of c-Myc oncogene expression. The c-Myc primer pair used for RT-PCR cycling was:
# (§4) The c-Myc primer pair was cycled by the following program: 95° C. for 3 min., then 30 cycles of (95° C. for 1 min., then 55° C. for 1 min., then 72° C. for 1 min.) followed by holding temperature at 72° C. for 7 min. before ramping temperature to 4° C. Samples were analyzed quantitatively by 1% agarose gel electrophoresis and gel densitometry.
# [3] = Preliminary Phase I/II clinical trials, lung cancer and refractory malignancies metastatic to the liver; type: in vivo, human
# T24 bladder cancer cells = assay: Pretreatment followed by various chemotherapeutic agents, T24; type: cell-based, human
# Method: Human T24 bladder and A549 lung cancer cells were exposed to increasing concentrations of pivaloyloxymethyl butyrate for 6 or 72 hours followed by exposure to various chemotherapeutic agents. […] At higher dosages the increase in cytotoxicity following the sequential regimen would show after a shorter induction period with pivaloyloxymethyl butyrate as discussed above.
# [4] = Biological evaluations (myeloablation, myelosuppression)
# Excerpt: Pivaloyloxymethyl butyrate functions as a differentiating agent with activity against multiple tumor cell types in culture.
# c-Myc oncogene [5] = assay: c-Myc oncogene expression by RT-PCR, T24 cells; type: cell-based, human; conditions: for c-Myc oncogene expression: 96 hour exposure
# Method: as §1, §2, §3, §4
compound,measurement,setting,value
"CCCC(=O)OCOC(=O)C(C)(C)C [Pivanex, pivaloyloxymethyl butyrate]",T24 cancer cell viability (A^490 Absorbance),"[1]; Pivanex 10 μM, cisplatin 0 μM",0.48
same,T24 cancer cell viability (A^490 Absorbance),"[1]; Pivanex 25 μM, gemcitabine 0 nM",0.479
same,T24 cancer cell viability (A^490 Absorbance),"[1]; Pivanex 50 μM, cisplatin 0 μM",0.422
same,T24 cancer cell viability (A^490 Absorbance),"[1]; Pivanex 50 μM, gemcitabine 0 nM",0.455
same,T24 cancer cell viability (A^490 Absorbance),"[1]; Pivanex 100 μM, gemcitabine 0 nM",0.414
same,T24 cancer cell viability (A^490 Absorbance),"[1]; Pivanex 200 μM, gemcitabine 0 nM",0.41
same,concentrations at which cytotoxicity was observed,tumor cells; 6-hour exposure,greater than 125 μM
same,concentrations at which cytotoxicity was observed,tumor cells; 72 hours of treatment,greater than 25 μM
same,cell growth with agent alone,H522 NSCLC cell line,steep increase in H522 cell growth
same,concentrations (as low as) that decreased the expression of c-Myc oncogene,c-Myc oncogene [2],10 to 50 µM
same,tolerability,[3],well tolerated
same,enhancement of cytotoxicity of chemotherapeutic agents,"T24 bladder cancer cells; T24, 6-hour pretreatment, lower doses",did not enhance cytotoxicity
same,enhancement of cytotoxicity of chemotherapeutic agents,"T24 bladder cancer cells; T24, 72-hour pretreatment",did enhance drug-induced cytotoxicity
same,myeloablation / myelosuppression,[4],non-myeloablative and non-myelosuppressive
same,c-Myc oncogene expression,c-Myc oncogene [5]; Pivanex 10 μM,760 PCR units
same,c-Myc oncogene expression,c-Myc oncogene [5]; Pivanex 25 μM,972 PCR units
same,c-Myc oncogene expression,c-Myc oncogene [5]; Pivanex 50 μM,966 PCR units
same,c-Myc oncogene expression,c-Myc oncogene [5]; Pivanex 100 μM,640 PCR units
same,c-Myc oncogene expression,c-Myc oncogene [5]; Pivanex 200 μM,560 PCR units
same,concentrations (as low as) that decreased the expression of c-Myc oncogene,"c-Myc oncogene [5]; T-24, 96 hours in culture",10 to 50 µM
